Tests used:
Experiment in all cases: Screen Quest Fluo-8 No Wash Calcium Assay (Bz-ATP evoked Ca2+ influx, FLIPR)
Assay type in all cases: cell-based
P2X7 receptor [1] = target: T1, P2X7 receptor (Mus musculus, UniProt Q9Z1M0); details: mP2X7; HEK-293 cells stably transfected with P2X7 receptor, Bz-ATP at EC80, Fluo-8 NW; potency ranges A-D
T1 construct: mP2X7 (IC50; nM); other: mP2X7; HEK-293 cells stably transfected with P2X7 receptor, Bz-ATP at EC80, Fluo-8 NW; potency
T1 sequence (Q9Z1M0 1-595): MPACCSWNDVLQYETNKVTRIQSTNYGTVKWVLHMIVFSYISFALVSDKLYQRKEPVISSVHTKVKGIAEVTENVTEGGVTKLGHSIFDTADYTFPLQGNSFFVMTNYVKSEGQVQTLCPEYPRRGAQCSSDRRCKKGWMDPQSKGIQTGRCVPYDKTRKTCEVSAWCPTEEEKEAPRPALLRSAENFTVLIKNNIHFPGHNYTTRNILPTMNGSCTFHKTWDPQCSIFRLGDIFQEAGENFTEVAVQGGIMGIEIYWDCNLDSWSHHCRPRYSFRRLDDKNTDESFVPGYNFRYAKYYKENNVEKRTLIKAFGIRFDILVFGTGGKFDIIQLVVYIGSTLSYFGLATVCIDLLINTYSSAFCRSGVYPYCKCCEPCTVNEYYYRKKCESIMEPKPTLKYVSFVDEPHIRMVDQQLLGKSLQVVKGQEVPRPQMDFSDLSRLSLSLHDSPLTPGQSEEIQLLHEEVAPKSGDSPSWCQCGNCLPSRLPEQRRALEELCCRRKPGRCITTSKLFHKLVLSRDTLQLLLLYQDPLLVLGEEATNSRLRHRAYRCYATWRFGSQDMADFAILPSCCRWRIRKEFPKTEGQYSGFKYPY
How it was run: (§1)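 HEK-293 cells stably expressing P2X7 were loaded with Fluo-8 NW for 1 h at RT, then given compound, and 5 min later Bz-ATP at EC80. Fluorescence was read by FLIPR in low divalent cation buffer (0.3 mM Ca2+, 0 mM Mg2+). IC50 came from percent inhibition relative to reference antagonist A438079.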

P2X7 receptor [2] = target: T2, P2X7 receptor (Rattus norvegicus, UniProt Q64663); details: rP2X7; HEK-293 cells stably transfected with P2X7 receptor, Bz-ATP at EC80, Fluo-8 NW; potency ranges A-D
T2 construct: rP2X7 (IC50; nM); other: rP2X7; HEK-293 cells stably transfected with P2X7 receptor, Bz-ATP at EC80, Fluo-8 NW; potency
T2 sequence (Q64663 1-595): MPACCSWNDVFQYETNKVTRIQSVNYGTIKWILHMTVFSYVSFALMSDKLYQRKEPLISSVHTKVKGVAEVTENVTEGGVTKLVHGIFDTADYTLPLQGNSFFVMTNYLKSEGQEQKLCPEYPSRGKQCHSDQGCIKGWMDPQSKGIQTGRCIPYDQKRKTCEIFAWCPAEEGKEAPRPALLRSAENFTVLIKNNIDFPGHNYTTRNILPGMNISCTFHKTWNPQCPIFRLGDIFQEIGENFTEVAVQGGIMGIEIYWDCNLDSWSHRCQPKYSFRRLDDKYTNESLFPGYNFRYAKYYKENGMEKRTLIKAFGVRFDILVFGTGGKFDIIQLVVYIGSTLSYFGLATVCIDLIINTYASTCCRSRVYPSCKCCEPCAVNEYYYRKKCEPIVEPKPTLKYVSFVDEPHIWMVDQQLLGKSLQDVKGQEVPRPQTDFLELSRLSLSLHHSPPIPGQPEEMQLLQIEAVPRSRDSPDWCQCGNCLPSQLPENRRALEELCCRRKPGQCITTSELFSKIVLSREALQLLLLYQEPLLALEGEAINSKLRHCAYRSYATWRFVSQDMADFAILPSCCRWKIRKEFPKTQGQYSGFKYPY
How it was run: as §1

P2X7 receptor [3] = target: T3, P2X7 receptor (Homo sapiens, UniProt Q99572); parameters: hP2X7 (IC50; nM); other: hP2X7; HEK-293 cells stably transfected with P2X7 receptor, Bz-ATP at EC80, Fluo-8 NW; potency; details: hP2X7; HEK-293 cells stably transfected with P2X7 receptor, Bz-ATP at EC80, Fluo-8 NW; potency ranges A-D
T3 sequence (Q99572 1-595): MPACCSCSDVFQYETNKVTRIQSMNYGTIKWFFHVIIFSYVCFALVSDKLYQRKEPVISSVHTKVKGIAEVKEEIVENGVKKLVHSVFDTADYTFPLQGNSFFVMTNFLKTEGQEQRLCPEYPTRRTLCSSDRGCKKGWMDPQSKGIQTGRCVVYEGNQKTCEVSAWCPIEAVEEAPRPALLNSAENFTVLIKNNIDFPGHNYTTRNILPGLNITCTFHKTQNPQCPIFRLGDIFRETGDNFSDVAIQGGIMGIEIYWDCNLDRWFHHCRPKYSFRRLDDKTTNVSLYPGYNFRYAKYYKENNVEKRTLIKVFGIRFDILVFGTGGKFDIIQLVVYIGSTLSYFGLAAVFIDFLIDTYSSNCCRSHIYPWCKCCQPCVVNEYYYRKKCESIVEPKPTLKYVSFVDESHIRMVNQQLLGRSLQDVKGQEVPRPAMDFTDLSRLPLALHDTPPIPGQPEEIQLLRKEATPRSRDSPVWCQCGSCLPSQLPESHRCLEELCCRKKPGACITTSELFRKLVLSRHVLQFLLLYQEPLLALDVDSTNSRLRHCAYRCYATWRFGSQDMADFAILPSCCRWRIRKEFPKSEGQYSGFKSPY
How it was run: as §1

| SMILES | IC50 (P2X7 receptor [1]) [nM] | IC50 (P2X7 receptor [2]) [nM] | IC50 (P2X7 receptor [3]) [nM] |
| --- | --- | --- | --- |
| CCn1c(Cc2c(F)cccc2Cl)noc1=O [Example 175, 3-[(2-chloro-6-fluorophenyl)methyl]-4-ethyl-4,5-dihydro-1,2,4-oxadiazol-5-one] | > 10000 | > 10000 | > 10000 |
| CCCn1c(Cc2c(F)cccc2Cl)noc1=O [Example 176, 3-[(2-chloro-6-fluorophenyl)methyl]-4-propyl-4,5-dihydro-1,2,4-oxadiazol-5-one] | > 10000 | > 10000 | > 10000 |
| CCCCn1c(Cc2c(F)cccc2Cl)noc1=O [Example 177, 4-butyl-3-[(2-chloro-6-fluorophenyl)methyl]-4,5-dihydro-1,2,4-oxadiazol-5-one] | > 10000 | 1000 to 10000 | 1000 to 10000 |
| CC(C)Cn1c(Cc2c(F)cccc2Cl)noc1=O [Example 178, 3-[(2-chloro-6-fluorophenyl)methyl]-4-(2-methylpropyl)-4,5-dihydro-1,2,4-oxadiazol-5-one] | > 10000 | > 10000 | 1000 to 10000 |
| O=c1onc(Cc2c(F)cccc2Cl)n1CCCN1CCCCC1 [Example 180, 3-[(2-chloro-6-fluorophenyl)methyl]-4-[3-(piperidin-1-yl)propyl]-4,5-dihydro-1,2,4-oxadiazol-5-one] | > 10000 | > 10000 | > 10000 |
| O=c1onc(Cc2c(F)cccc2Cl)n1CCN1CCC(F)(F)CC1 [Example 181, 3-[(2-chloro-6-fluorophenyl)methyl]-4-[2-(4,4-difluoropiperidin-1-yl)ethyl]-4,5-dihydro-1,2,4-oxadiazol-5-one] | 1000 to 10000 | 1000 to 10000 | 200 to 1000 |
| O=c1onc(Cc2c(F)cccc2Cl)n1CC1CCC(F)CC1 (stereo not drawn) [Example 185, 3-[(2-chloro-6-fluorophenyl)methyl]-4-[(4-fluorocyclohexyl)methyl]-4,5-dihydro-1,2,4-oxadiazol-5-one] | < 200 | < 200 | < 200 |
| CC(c1ccccc1)n1c(CC2CCC(F)(F)CC2)noc1=O (stereo not drawn) [Example 188, 3-[(4,4-difluorocyclohexyl)methyl]-4-(1-phenylethyl)-4,5-dihydro-1,2,4-oxadiazol-5-one] | 1000 to 10000 | 1000 to 10000 | 1000 to 10000 |
| Cc1nc(C(F)(F)F)ccc1Cn1c(CC2CCC(F)(F)CC2)noc1=O [Example 192, 3-[(4,4-difluorocyclohexyl)methyl]-4-{[2-methyl-6-(trifluoromethyl)-pyridin-3-yl]methyl}-4,5-dihydro-1,2,4-oxadiazol-5-one] | > 10000 | > 10000 | > 10000 |
| Cc1cc(Cn2c(CC3CCC(F)(F)CC3)noc2=O)n(C)n1 [Example 195, 3-[(4,4-difluorocyclohexyl)methyl]-4-[(1,3-dimethyl-1H-pyrazol-5-yl)methyl]-1,2,4-oxadiazol-5(4H)-one] | 200 to 1000 | 200 to 1000 | 200 to 1000 |

The next lines start with the values.

| IC50 (P2X7 receptor [1]) [nM] | IC50 (P2X7 receptor [2]) [nM] | IC50 (P2X7 receptor [3]) [nM] | SMILES |
| --- | --- | --- | --- |
| 1000 to 10000 | > 10000 | 1000 to 10000 | O=c1onc(Cc2c(F)cccc2Cl)n1CCCC1CCCCC1 [Example 179, 3-[(2-chloro-6-fluorophenyl)methyl]-4-(3-cyclohexylpropyl)-4,5-dihydro-1,2,4-oxadiazol-5-one] |
| > 10000 | > 10000 | 1000 to 10000 | O=c1onc(Cc2c(F)cccc2Cl)n1CCCN1CCC(F)(F)CC1 [Example 182, 3-[(2-chloro-6-fluorophenyl)methyl]-4-[3-(4,4-difluoropiperidin-1-yl)propyl]-4,5-dihydro-1,2,4-oxadiazol-5-one] |
| 1000 to 10000 | 200 to 1000 | 200 to 1000 | O=c1onc(Cc2c(F)cccc2Cl)n1CC1CC=CC1 [Example 183, 3-[(2-chloro-6-fluorophenyl)methyl]-4-(cyclopent-3-en-1-ylmethyl)-4,5-dihydro-1,2,4-oxadiazol-5-one] |
| < 200 | < 200 | < 200 | O=c1onc(Cc2c(F)cccc2Cl)n1CC1CCC(C(F)(F)F)CC1 (stereo not drawn) [Example 184, 3-[(2-chloro-6-fluorophenyl)methyl]-4-{[4-(trifluoromethyl)cyclohexyl]methyl}-1,2,4-oxadiazol-5(4H)-one] |
| > 10000 | > 10000 | > 10000 | O=c1onc(CC2CCC(F)(F)CC2)n1Cc1ccc(C(F)(F)F)nc1 [Example 189, 3-[(4,4-difluorocyclohexyl)methyl]-4-{[6-(trifluoromethyl)pyridin-3-yl]methyl}-4,5-dihydro-1,2,4-oxadiazol-5-one] |
| > 10000 | > 10000 | > 10000 | O=c1onc(CC2CCC(F)(F)CC2)n1Cc1ncc(F)cn1 [Example 190, 3-[(4,4-difluorocyclohexyl)methyl]-4-[(5-fluoropyrimidin-2-yl)methyl]-4,5-dihydro-1,2,4-oxadiazol-5-one] |
| > 10000 | 200 to 1000 | 1000 to 10000 | O=c1onc(CC2CCC(F)(F)CC2)n1Cc1nccs1 [Example 191, 3-[(4,4-difluorocyclohexyl)methyl]-4-(1,3-thiazol-2-ylmethyl)-4,5-dihydro-1,2,4-oxadiazol-5-one] |
| 1000 to 10000 | 200 to 1000 | 1000 to 10000 | O=c1onc(CC2CCC(F)(F)CC2)n1Cc1cncs1 [Example 193, 3-[(4,4-difluorocyclohexyl)methyl]-4-[(1,3-thiazol-5-yl)methyl]-1,2,4-oxadiazol-5(4H)-one] |
| > 10000 | 1000 to 10000 | 1000 to 10000 | O=c1onc(CC2CCC(F)(F)CC2)n1Cc1ncco1 [Example 194, 3-[(4,4-difluorocyclohexyl)methyl]-4-[(1,3-oxazol-2-yl)methyl]-1,2,4-oxadiazol-5(4H)-one] |
| > 10000 | > 10000 | > 10000 | Cc1nc(Cn2c(CC3CCC(F)(F)CC3)noc2=O)no1 [Example 196, 3-[(4,4-difluorocyclohexyl)methyl]-4-[(5-methyl-1,2,4-oxadiazol-3-yl)methyl]-1,2,4-oxadiazol-5(4H)-one] |
| > 10000 | > 10000 | > 10000 | Cc1noc(Cn2c(CC3CCC(F)(F)CC3)noc2=O)n1 [Example 197, 3-[(4,4-difluorocyclohexyl)methyl]-4-[(3-methyl-1,2,4-oxadiazol-5-yl)methyl]-1,2,4-oxadiazol-5(4H)-one] |

From patent US11623919B2, “Heterocyclic P2X7 antagonists” (AXXAM S.P.A., priority 2017, dated 2023)
